This data set deals with human SMAD7 mRNA. The data set can be described thus: Antisense inhibition of human SMAD7 mRNA expression in Hep3B cells by 3-10-3 cEt gapmers, 10,000 nM, electroporation (Example 2). The format is cell-based. As to conditions: approximately 24 hours. The procedure, abridged: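 SMAD7 mRNA was measured by real-time PCR (RTS5062) with RiboGreen total-RNA normalization, about 24 h after 10,000 nM gapmer was delivered by electroporation into Hep3B cells at 20,000 per well. Gapmers were 16-mer 3-10-3 cEt, fully phosphorothioate; values are % inhibition versus untreated controls.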

The mark [1] stands for this setting: Hep3B cells, electroporation with 10,000 nM antisense oligonucleotide, primer probe set RTS5062, relative to untreated control cells.
Setting [2] is: Hep3B cells, electroporation with 10,000 nM antisense oligonucleotide, SMAD7 mRNA by RT-PCR (RTS5062), relative to untreated control cells.
Setting [3] is: SMAD7 mRNA, Hep3B cells, electroporation with 10,000 nM antisense oligonucleotide, primer probe set RTS5062, relative to untreated control cells.
Setting [4] is: Hep3B cells, 10,000 nM antisense oligonucleotide, electroporation, RT-PCR primer probe set RTS5062, relative to untreated control cells.
The mark [5] stands for this setting: Hep3B cells, electroporation, 10,000 nM antisense oligonucleotide, RTS5062, relative to untreated control cells.

Strand notation (5' to 3'): a small letter for the sugar, then the base; units joined by * are phosphorothioate-linked, units joined directly phosphodiester-linked; [ ] holds rarer units or linkages, { } end groups; capitals alone tell only the bases. k = constrained ethyl (cEt); [5mC] = 5-methylcytosine; d = 2'-deoxy (DNA)

This note sets out measurements from patent US10517889B2, “Modulators of SMAD7 expression” (Ionis Pharmaceuticals, Inc., priority 2017, dated 2019).

Turning to “799386 (antisense kA*kG*kG*dA*dG*d[5mC]*dT*dA*dA*dA*dT*dG*dG*kT*kG*k[5mC]) [compound 799386]”, under setting [1], the “% inhibition of SMAD7 mRNA expression” value turned out to be 12%.

Consider “798667 (kT*kG*kG*d[5mC]*dA*dT*dG*d[5mC]*dG*d[5mC]*d[5mC]*dA*dG*kT*k[5mC]*kT; antisense) [compound 798667]”, for which, under setting [2], the % Inhibition – broadly, the drop in the measured response relative to a control, in per cent – was determined as 21%.

In the case of “829892 (antisense kG*kA*kT*d[5mC]*dT*dG*d[5mC]*dA*d[5mC]*dG*dG*dT*dA*kA*kA*kG) [compound 829892]”, under setting [3], the “% Inhibition” value amounted to 32%.

As to “799837 (antisense kT*k[5mC]*kA*dT*dA*dA*dG*d[5mC]*dA*dT*dA*dG*dA*kT*kT*kT) [compound 799837]”, the “% Inhibition” value under setting [4] stood at 38%.

Take “829882 (antisense kA*kG*kG*d[5mC]*dT*dG*dT*dA*d[5mC]*dG*d[5mC]*d[5mC]*dT*kT*k[5mC]*kT) [compound 829882]”: the “% Inhibition” value under setting [3] was 3%.

As to “830148 (antisense kG*kG*kA*d[5mC]*dT*dG*dG*dT*d[5mC]*dT*dT*d[5mC]*dA*k[5mC]*k[5mC]*kA) [compound 830148]”, under setting [2], the “% Inhibition” value worked out at 19%.

In the case of “799294 (antisense k[5mC]*kG*k[5mC]*dG*dG*d[5mC]*d[5mC]*dT*dT*dG*dA*dT*dG*k[5mC]*kT*kG) [compound 799294]”, the “% Inhibition” value (Hep3B cells, electroporation with 10,000 nM antisense oligonucleotide, RTS5062, percent inhibition of SMAD7 mRNA relative to untreated control cells) was found to be 13%.

As to “830141 (antisense kG*kG*k[5mC]*dA*dT*dT*dA*dG*dA*dG*dA*d[5mC]*d[5mC]*kT*k[5mC]*kA) [compound 830141]”, under setting [2], the “% Inhibition” value is 58%.

On to “798761 (kG*kA*k[5mC]*dG*dA*dG*dG*dG*d[5mC]*dG*dG*d[5mC]*dT*kG*k[5mC]*kG; antisense) [compound 798761]”, for which, under setting [1], the “% inhibition of SMAD7 mRNA expression” value was 39%.

On to “790498 (k[5mC]*kT*k[5mC]*dT*dA*dG*dT*dT*d[5mC]*dG*d[5mC]*dA*dG*kA*kG*kT; antisense) [compound 790498]”, for which the “% Inhibition” value (SMAD7 mRNA, Hep3B cells, 10,000 nM antisense oligonucleotide, electroporation, primer probe set RTS5062, relative to untreated control cells) was found to be 11%.

Consider “799558 (k[5mC]*kT*kT*d[5mC]*dT*dA*dT*dT*d[5mC]*dG*dA*dG*d[5mC]*kT*kG*k[5mC]; antisense) [compound 799558]”, for which, under setting [5], the “% inhibition of SMAD7 mRNA expression” value is recorded as 47%.

For the substance “799352 (kG*k[5mC]*kG*dG*dT*dG*dA*dT*dT*dG*d[5mC]*d[5mC]*dT*kT*kG*kA; antisense) [compound 799352]”, under setting [2], the “% Inhibition” value is 24%.

“790464 (kA*kG*k[5mC]*dG*dA*dA*d[5mC]*dA*dT*dG*dA*d[5mC]*d[5mC]*kT*k[5mC]*k[5mC]; antisense) [compound 790464]”: the “% Inhibition” value under setting [2] was determined as 58%.

As to “799659 (antisense kA*kA*kA*dT*dA*dA*d[5mC]*dT*dA*d[5mC]*dA*dA*dG*kT*kG*kG) [compound 799659]”, under setting [5], the “% inhibition of SMAD7 mRNA expression” value is given as 57%.

On to “799521 (antisense kT*kA*kA*dA*dG*dA*d[5mC]*dA*dG*dG*dT*dT*dT*k[5mC]*k[5mC]*k[5mC]) [compound 799521]”, for which, under setting [5], the “% inhibition of SMAD7 mRNA expression” value is reported as 57%.

With “799956 (antisense kT*k[5mC]*kT*d[5mC]*d[5mC]*dA*dG*d[5mC]*d[5mC]*dG*d[5mC]*dT*d[5mC]*kA*kG*kA) [compound 799956]”, the “% Inhibition” value under setting [4] worked out at 57%.

Take “799933 (antisense kT*kA*k[5mC]*dT*dA*dT*dT*d[5mC]*dA*dT*d[5mC]*dA*d[5mC]*k[5mC]*k[5mC]*kT) [compound 799933]”: the “% Inhibition” value under setting [4] worked out at 22%.

With “829936 (k[5mC]*kA*kG*d[5mC]*dT*dA*dG*dG*dT*dG*dA*dT*dA*kA*k[5mC]*kA; antisense) [compound 829936]”, under setting [3], the “% Inhibition” value stood at 14%.

As for “799305 (antisense k[5mC]*kA*kT*dG*dA*dA*dA*dG*dA*d[5mC]*dA*dA*dA*k[5mC]*k[5mC]*kA) [compound 799305]”, under setting [5], the “% inhibition of SMAD7 mRNA expression” value came to 0%.

Consider “830151 (antisense kG*k[5mC]*k[5mC]*dA*dG*dT*dG*dG*dT*dG*dA*d[5mC]*d[5mC]*kT*k[5mC]*k[5mC]) [compound 830151]”, for which the “% Inhibition” value under setting [2] amounted to 45%.
